Experimental findings from patent US8569267B2, “Tetracyclic tetrahydrofuran derivatives containing cyclic amine side chain” (Janssen Pharmaceutica, NV, priority 2005, dated 2013) are described below.

Like-named read-outs stand apart in the source and are kept apart here.

Test [1] deals with T1, NET (norepinephrine transporter) (Rattus norvegicus, UniProt Q63380).
T1 construct: Cortex from rat brain was collected and homogenised; from tissue; host or cells: rat brain cortex
In words: In vitro determination of NET reuptake inhibition ([3H]Nixosetine binding, rat brain cortex). The protocol: In Vitro Determination of NET Reuptake Inhibition
Cortex from rat brain was collected and homogenised using an Ultra-Turrax T25 and a Dual homogeniser in ice-cold homogenising buffer containing Tris, NaCl and KCl (50 mM, 120 mM and 5 mM, respectively, pH 7.4) prior to dilution to an appropriate protein concentration optimised for specific and non-specific binding. […] Membrane-bound activity was detected by filtration through a Packard Filtermate harvester onto GF/B Unifilterplates, washed with ice-cold Tris-HCl buffer, containing NaCl and KCl (50 mM, 120 mM and 4 mM; pH 7.4; 6×0.5 ml). Filters were allowed to dry for 24 h before adding scintillation fluid. Scintillation fluid was allowed to saturate filters for 24 h before counting in a Topcount scintillation counter. Percentage specific bound and competition binding curves were calculated using S-Plus software (Insightful).

For test [2], the target named is T2, human cloned 5-HT2C receptor, expressed in CHO cells (Homo sapiens, UniProt P28335).
T2 construct: expressed in transfected cells; host or cells: CHO cells
T2 sequence (P28335 33-458): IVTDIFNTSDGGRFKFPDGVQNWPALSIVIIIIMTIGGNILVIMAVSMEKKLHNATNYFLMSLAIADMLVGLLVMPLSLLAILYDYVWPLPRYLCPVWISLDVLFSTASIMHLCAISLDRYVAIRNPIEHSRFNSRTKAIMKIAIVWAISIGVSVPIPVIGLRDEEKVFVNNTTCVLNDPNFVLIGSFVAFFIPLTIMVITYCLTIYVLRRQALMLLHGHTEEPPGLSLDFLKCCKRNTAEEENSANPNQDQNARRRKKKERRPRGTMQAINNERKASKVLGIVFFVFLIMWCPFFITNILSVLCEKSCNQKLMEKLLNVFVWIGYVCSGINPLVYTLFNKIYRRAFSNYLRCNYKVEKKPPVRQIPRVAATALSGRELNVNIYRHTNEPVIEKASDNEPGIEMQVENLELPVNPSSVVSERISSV
In words: In vitro binding affinity for 5-HT2C receptor ([3H]mesulergine radioligand binding). On the procedure:
In Vitro Binding Affinity for 5-HT2A and 5-HT2C Receptors
The interaction of the compounds of Formula (I) with 5-HT2A and 5-HT2C receptors was assessed in in vitro radioligand binding experiments. […] During the incubation, the radioligands bind to the receptor. When equilibrium of binding is reached, the receptor bound radioactivity is separated from the non-bound radioactivity, and the receptor bound activity is counted. The interaction of the test compounds with the receptors is assessed in competition binding experiments. Various concentrations of the test compound are added to the incubation mixture containing the tissue preparation and the radioligand. Binding of the radioligand will be inhibited by the test compound in proportion to its binding affinity and its concentration.

For test [3], the target named is T3, human Dopamine D2L receptor (Homo sapiens, UniProt P14416).
T3 construct: expressed in transfected cells; host or cells: CHO cells
As to the kind of experiment: In vitro binding affinity for human D2L receptor ([3H]Spiperone binding). The protocol:
In Vitro Binding Affinity for Human D2L Receptor
Frozen membranes of human Dopamine D2L receptor-transfected CHO cells were thawed, briefly homogenised using an Ultra-Turrax T25 homogeniser and diluted in Tris-HCl assay buffer containing NaCl, CaCl2, MgCl2, KCl (50, 120, 2, 1, and 5 mM respectively, adjusted to pH 7.7 with HCl) to an appropriate protein concentration optimised for specific and non-specific binding. Radioligand [^3H]Spiperone (NEN, specific activity ˜70 Ci/mmol) was diluted in assay buffer at a concentration of 2 nmol/L. Prepared radioligand (50 μl), along with 50 μl of either the 10% DMSO control, Butaclamol (10^−6 mol/l final concentration), or compound of interest, was then incubated (30 min, 37° C.) with 400 μl of the prepared membrane solution. Membrane-bound activity was filtered through a Packard Filtermate harvester onto GF/B Unifilterplates and washed with ice-cold Tris-HCl buffer (50 mM; pH 7.7; 6×0.5 ml). Filters were allowed to dry before adding scintillation fluid and counting in a Topcount scintillation counter. Percentage specific bound and competition binding curves were calculated using S-Plus software (Insightful).

[4] abbreviates: rat brain cortex, read-out: NET pIC50 (converted).
The mark [5] stands for this setting: human cloned 5-HT2C receptor, read-out: 5-HT2C pIC50 (converted).
Setting [6] is: human D2L receptor-transfected CHO cell membranes, read-out: D2L pIC50 (converted).

T3 sequence (P14416 whole entry): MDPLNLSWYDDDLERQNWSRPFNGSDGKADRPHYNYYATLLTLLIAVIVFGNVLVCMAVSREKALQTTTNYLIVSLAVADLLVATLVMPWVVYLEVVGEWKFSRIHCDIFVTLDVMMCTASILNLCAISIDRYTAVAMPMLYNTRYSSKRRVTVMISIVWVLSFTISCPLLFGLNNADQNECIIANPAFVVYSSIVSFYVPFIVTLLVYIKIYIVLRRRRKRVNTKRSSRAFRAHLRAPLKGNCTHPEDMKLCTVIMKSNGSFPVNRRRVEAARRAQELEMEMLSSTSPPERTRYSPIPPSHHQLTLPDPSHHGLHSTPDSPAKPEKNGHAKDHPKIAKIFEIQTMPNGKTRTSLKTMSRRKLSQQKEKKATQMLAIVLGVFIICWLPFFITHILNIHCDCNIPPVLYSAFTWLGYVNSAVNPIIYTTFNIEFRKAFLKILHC
T1 sequence (Q63380 1-617): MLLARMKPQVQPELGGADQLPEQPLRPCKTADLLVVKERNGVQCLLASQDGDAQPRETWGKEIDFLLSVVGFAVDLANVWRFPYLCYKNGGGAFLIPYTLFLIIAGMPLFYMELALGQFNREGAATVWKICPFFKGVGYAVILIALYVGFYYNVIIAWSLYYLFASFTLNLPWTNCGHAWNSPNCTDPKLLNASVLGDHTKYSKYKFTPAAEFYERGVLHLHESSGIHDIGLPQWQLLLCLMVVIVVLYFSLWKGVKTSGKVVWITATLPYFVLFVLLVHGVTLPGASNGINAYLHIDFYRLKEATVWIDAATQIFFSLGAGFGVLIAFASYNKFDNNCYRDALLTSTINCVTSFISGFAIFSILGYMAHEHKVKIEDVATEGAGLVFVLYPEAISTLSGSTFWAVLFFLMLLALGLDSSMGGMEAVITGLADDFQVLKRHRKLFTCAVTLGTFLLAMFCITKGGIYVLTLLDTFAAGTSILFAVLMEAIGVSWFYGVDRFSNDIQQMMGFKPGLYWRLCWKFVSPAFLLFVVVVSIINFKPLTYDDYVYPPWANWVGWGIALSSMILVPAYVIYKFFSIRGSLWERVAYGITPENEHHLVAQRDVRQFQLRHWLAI

Regarding `N#CC1(c2ccccc2)CCN(C(=O)C2CCN(CC3CC4c5ccccc5Cc5ccc(F)cc5C4O3)CC2)CC1` (stereo not drawn) [Compound 208], the results for the IC50 in test [1] (setting [4]), in test [2] (setting [5]) and in test [3] (setting [6]) were > 10 µM, 0.00794 µM and 0.0229 µM, respectively.
Take `COC(=O)NC1CCN(CC2CC3c4ccccc4Cc4ccc(F)cc4C3O2)CC1` (stereo not drawn) [Compound 210]: the IC50 in test [1] (setting [4]) is 7.41 µM; in test [2] (setting [5]) it was 0.00417 µM; in test [3] (setting [6]), 0.00794 µM.
On to `CCOC(=O)NC1CCN(CC2CC3c4ccccc4Cc4ccc(F)cc4C3O2)CC1` (stereo not drawn) [Compound 211], for which the values for the IC50 in test [1] (setting [4]), in test [2] (setting [5]) and in test [3] (setting [6]) were > 10 µM, 0.00575 µM and 0.00589 µM, respectively.
On the same counts, the results for `CCCOC(=O)NC1CCN(CC2CC3c4ccccc4Cc4ccc(F)cc4C3O2)CC1` (stereo not drawn) [Compound 212] are 7.08 µM, 0.00741 µM and 0.00603 µM.
Consider `CCCCOC(=O)NC1CCN(CC2CC3c4ccccc4Cc4ccc(F)cc4C3O2)CC1` (stereo not drawn) [Compound 213], for which the IC50 in test [1] (setting [4]) is 4.37 µM; in test [2] (setting [5]), 0.0155 µM; in test [3] (setting [6]), 0.00871 µM.
On the same counts, the results for `COCCOC(=O)NC1CCN(CC2CC3c4ccccc4Cc4ccc(F)cc4C3O2)CC1` (stereo not drawn) [Compound 216] are > 10 µM, 0.00617 µM and 0.0102 µM.
On the same counts, the results for `C#CCOC(=O)NC1CCN(CC2CC3c4ccccc4Cc4ccc(F)cc4C3O2)CC1` (stereo not drawn) [Compound 217] are 8.91 µM, 0.00407 µM and 0.0049 µM.
On the same counts, the results for `O=C(NC1CCN(C[C@H]2C[C@@H]3c4ccccc4Cc4ccc(F)cc4[C@@H]3O2)CC1)OCc1ccccc1Cl` [Compound 218] are 5.62 µM, 0.00575 µM and 0.0102 µM.
Turning to `COc1ccc(OC(=O)NC2CCN(CC3CC4c5ccccc5Cc5ccc(F)cc5C4O3)CC2)cc1` (stereo not drawn) [Compound 219], the IC50 was > 10 µM in test [1] (NET pIC50, rat brain cortex); 0.00398 µM in test [2] (5-HT2C pIC50, human cloned 5-HT2C receptor); 0.00339 µM in test [3] (D2L pIC50, human D2L receptor-transfected CHO cell membranes).
With `O=C(NC1CCN(CC2CC3c4ccccc4Cc4ccc(F)cc4C3O2)CC1)C1CC1` (stereo not drawn) [Compound 220], the figures for the IC50 in test [1] (setting [4]), in test [2] (setting [5]) and in test [3] (setting [6]) were 5.37 µM, 0.00214 µM and 0.00427 µM, respectively.
On the same counts, the results for `Cn1cccc1C(=O)NC1CCN(CC2CC3c4ccccc4Cc4ccc(F)cc4C3O2)CC1` (stereo not drawn) [Compound 221] are 7.24 µM, 0.011 µM and 0.00776 µM.
`Cc1onc(-c2ccccc2Cl)c1C(=O)NC1CCN(CC2CC3c4ccccc4Cc4ccc(F)cc4C3O2)CC1` (stereo not drawn) [Compound 222]: the IC50 in test [1] (setting [4]) is > 10 µM; in test [2] (setting [5]), 0.0195 µM; in test [3] (setting [6]) it was 0.0151 µM.
As for `O=C(NC1CCN(CC2CC3c4ccccc4Cc4ccc(F)cc4C3O2)CC1)c1cc2ccccc2s1` (stereo not drawn) [Compound 223], the results for the IC50 in test [1] (setting [4]), in test [2] (setting [5]) and in test [3] (setting [6]) were 8.51 µM, 0.0234 µM and 0.0178 µM, respectively.
The corresponding values for `CC(=O)N1CCC(C(=O)NC2CCN(CC3CC4c5ccccc5Cc5ccc(F)cc5C4O3)CC2)CC1` (stereo not drawn) [Compound 224] are > 10 µM, 0.0129 µM and 0.00339 µM.
Regarding `Cc1cccc(C(=O)NC2CCN(CC3CC4c5ccccc5Cc5ccc(F)cc5C4O3)CC2)c1` (stereo not drawn) [Compound 225], the IC50 in test [1] (setting [4]) is 5.25 µM; in test [2] (setting [5]), 0.0112 µM; in test [3] (setting [6]) it was 0.00603 µM.
The corresponding values for `O=C(NC1CCN(CC2CC3c4ccccc4Cc4ccc(F)cc4C3O2)CC1)c1ccccc1Br` (stereo not drawn) [Compound 226] are 10.5 µM, 0.00661 µM and 0.00537 µM.
The corresponding values for `O=C(NC1CCN(CC2CC3c4ccccc4Cc4ccc(F)cc4C3O2)CC1)c1ccccc1Cl` (stereo not drawn) [Compound 227] are 9.12 µM, 0.0112 µM and 0.00525 µM.
For the compound `O=C(NC1CCN(CC2CC3c4ccccc4Cc4ccc(F)cc4C3O2)CC1)c1cccc(Cl)c1Cl` (stereo not drawn) [Compound 228], the IC50 in test [1] (setting [4]) was 7.94 µM; in test [2] (setting [5]), 0.0209 µM; in test [3] (setting [6]), 0.00912 µM.
On the same counts, the results for `O=C(NC1CCN(CC2CC3c4ccccc4Cc4ccc(F)cc4C3O2)CC1)c1ccc(Cl)c(Cl)c1` (stereo not drawn) [Compound 229] are > 10 µM, 0.024 µM and 0.0148 µM.
For the compound `O=C(NC1CCN(CC2CC3c4ccccc4Cc4ccc(F)cc4C3O2)CC1)c1cccc(F)c1` (stereo not drawn) [Compound 231], the IC50 in test [1] (setting [4]) is 8.51 µM; in test [2] (setting [5]) it was 0.0107 µM; in test [3] (setting [6]), 0.00186 µM.
On the same counts, the results for `O=C(NC1CCN(CC2CC3c4ccccc4Cc4ccc(F)cc4C3O2)CC1)c1ccccc1F` (stereo not drawn) [Compound 232] are 4.07 µM, 0.00977 µM and 0.00479 µM.
The corresponding values for `O=C(NC1CCN(CC2CC3c4ccccc4Cc4ccc(F)cc4C3O2)CC1)c1cccc(C(F)(F)F)c1` (stereo not drawn) [Compound 233] are 5.25 µM, 0.0309 µM and 0.0148 µM.
The corresponding values for `O=C(NC1CCN(CC2CC3c4ccccc4Cc4ccc(F)cc4C3O2)CC1)c1c(F)c(F)c(F)c(F)c1F` (stereo not drawn) [Compound 234] are 7.24 µM, 0.0219 µM and 0.00871 µM.
For the compound `COc1cc(C(=O)NC2CCN(CC3CC4c5ccccc5Cc5ccc(F)cc5C4O3)CC2)cc(OC)c1OC` (stereo not drawn) [Compound 235], the IC50 in test [1] (setting [4]) was 9.12 µM; in test [2] (setting [5]) it was 0.0135 µM; in test [3] (setting [6]), 0.0186 µM.
The corresponding values for `O=C(NC1CCN(CC2CC3c4ccccc4Cc4ccc(F)cc4C3O2)CC1)c1ccc(-c2ccccc2)cc1` (stereo not drawn) [Compound 237] are 7.94 µM, 0.038 µM and 0.0589 µM.
On the same counts, the results for `O=C(Nc1ccc2c(c1)CCC2)NC1CCN(CC2CC3c4ccccc4Cc4ccc(F)cc4C3O2)CC1` (stereo not drawn) [Compound 238] are 7.76 µM, 0.00562 µM and 0.0214 µM.
On the same counts, the results for `O=C(Cc1ccc(Cl)cc1)NC1CCN(CC2CC3c4ccccc4Cc4ccc(F)cc4C3O2)CC1` (stereo not drawn) [Compound 239] are > 10 µM, 0.0229 µM and 0.049 µM.
As for `O=C(Cc1cccs1)NC1CCN(CC2CC3c4ccccc4Cc4ccc(F)cc4C3O2)CC1` (stereo not drawn) [Compound 240], the IC50 in test [1] (setting [4]) was > 10 µM; in test [2] (setting [5]), 0.00575 µM; in test [3] (setting [6]), 0.00457 µM.
On the same counts, the results for `O=C(CSc1ccccc1)NC1CCN(CC2CC3c4ccccc4Cc4ccc(F)cc4C3O2)CC1` (stereo not drawn) [Compound 241] are 7.76 µM, 0.00646 µM and 0.0055 µM.
`CN(C)C(=O)NC1CCN(CC2CC3c4ccccc4Cc4ccc(F)cc4C3O2)CC1` (stereo not drawn) [Compound 243]: the IC50 in test [1] (setting [4]) was > 10 µM; in test [2] (setting [5]) it was 0.00324 µM; in test [3] (setting [6]) it was 0.00676 µM.
On the same counts, the results for `CCCNC(=O)NC1CCN(C[C@H]2C[C@@H]3c4ccccc4Cc4ccc(F)cc4[C@@H]3O2)CC1` [Compound 244] are 8.91 µM, 0.00427 µM and 0.00457 µM.
Take `CC(C)(C)CC(C)(C)NC(=O)NC1CCN(CC2CC3c4ccccc4Cc4ccc(F)cc4C3O2)CC1` (stereo not drawn) [Compound 245]: the IC50 in test [1] (setting [4]) is 3.98 µM; in test [2] (setting [5]) it was 0.0229 µM; in test [3] (setting [6]), 0.0234 µM.
